Assay [1] deals with Erysiphe graminis f.sp. hordei. The experiment in a line: Activity against barley powdery mildew (EG), Example 53(h). As to conditions: therapeutic foliar spray, 1000 ppm. In kind it is in vivo. How it is done:
The test is a direct therapeutic one, using a foliar spray. Leaves of barley seedlings, (cv. Golden Promise) are inoculated by dusting with mildew conidia one day prior to treatment with the test compound. The inoculated plants are kept overnight at glasshouse ambient temperature and humidity prior to treatment. The plants are sprayed with the test compound at a dosage of 1000 ppm using an automated sprayline as described under (a). After drying, plants are returned to a compartment at 20°-25 ° C. and moderate humidity for up to 7 days, followed by assessment. Assessment is based on the percentage of leaf area covered by sporulation compared with that on leaves of control plants. The extent of disease control in all the above tests is expressed as a rating compared with either an untreated control or a diluent-sprayed-control, according to the criteria: […]

For assay [2], the system named is Pseudocercosporella herpotrichoides. Put plainly: Activity against wheat eyespot in-vitro (PHI), Example 53(j). As to conditions: 50 ppm, 12 days at 20° C. The assay is classed as cell-based. How it is done: This test measures the in vitro activity of compounds against the fungus causing wheat eyespot. The test compound is dissolved or suspended in acetone and is added into 4 ml aliquots of half strength Potato Dextrose Broth dispensed in 25-compartment petri dishes to give a final concentration of 50 ppm compound and 2.5% acetone. Each compartment is inoculated with a 6 mm diameter plug of agar/mycelium taken from a 14 day old culture of P. herpotrichoides. Plates are incubated at 20° C. for 12 days until the assessment of mycelial growth. The extent of disease control in all the above tests is expressed as a rating compared with either an untreated control or a diluent-sprayed-control, according to the criteria: […]

For assay [3] the test system is unchanged. Put plainly: MIC by serial dilution, Example 55, Pseudocercosporella herpotrichoides. The assay is classed as cell-based. The note with it: Oculimacula yallundae; microtitre plates, 20° C., 6-8 days. The procedure: (§1) The MIC (Minimum Inhibition Concentration)-values were determined by serial dilution tests using 48-well microtitre plates. The dilution of the test compounds in the nutrient solution and the distribution to the wells were carried out by a TECAN RSP 5000 robotic sample processor.
(§2) For preparation of the nutrient solution, V8 juice (Trade Mark) was neutralised with calcium carbonate and centrifuged. The supernatant was diluted with distilled water (1:5) to the final concentration.
(§3) The fungi (Alternaria solani, Botrytis cinerea, Pseudocercosporella herpotrichoides, Micronectriella nivalis, Gaeumannomyces graminis) were added into the wells as a droplet of spore suspension. The microtitre plates were then incubated at 20° C. for 6-8 days. The MIC-value, which was defined to be the lowest concentration in the dilution series without mycelial growth, was determined by visual inspection of the plates.

For assay [4], the system named is Micronectriella nivalis. The experiment in a line: MIC by serial dilution, Example 55, Micronectriella nivalis. The assay is classed as cell-based. As to conditions: microtitre plates, 20° C., 6-8 days. How it is done: as §1, §2, §3
In assay [5] the test system is Gaeumannomyces graminis. The experiment in a line: MIC by serial dilution, Example 55, Gaeumannomyces graminis. As to conditions: microtitre plates, 20° C., 6-8 days. In kind it is cell-based. How it is done: as §1, §2, §3
Assay [6] relates to Plasmopara viticola. Put plainly: Antisporulant activity against vine downy mildew (PVA), Example 54(a). The assay is classed as in vivo. As to conditions: antisporulant foliar spray, 600 ppm. How it is done: The test is a direct antisporulant one using a foliar spray. The lower surface of leaves of vine plants (cv. Cabernet Sauvignon), approximately 8 cm high, are inoculated with an aqueous suspension containing 5×10^4 zoosporangia/ml. The inoculated plants are kept for 24 hours at 21° C. in a high humidity cabinet, then for 24 hours in a glasshouse at 20° C. and 40% relative humidity. Infected leaves are sprayed on their lower surfaces with a solution of the test compound in 1:1 water/acetone containing 0.04% "TWEEN 20" (Trade Mark; a polyoxyethylene sorbitan ester surfactant). Plants are sprayed using a track sprayer equipped with 2 air-atomising nozzles. The concentration of the compound is 600 ppm and the spray volume is 750 l/ha. After drying, the plants are returned to the glasshouse at 20° C. and 40% relative humidity for 96 hours and are then transferred to the high humidity cabinet for 24 hours to induce sporulation. Assessment is based on the percentage of the leaf area covered by sporulation compared with that on control leaves. The extent of disease control in all the above tests is expressed as a rating compared with either an untreated control or a diluent-sprayed-control, according to the criteria: […]

SMILES strings stand for the structures. Converted amounts (≈) assume the structure as drawn.

The source of these data is patent US5854252A, “Dihalotriazolopyrimidine derivatives” (Shell Internationale Research Maatschappij B.V., priority 1993, dated 1998).

One may read the MIC as the lowest concentration found to suppress growth. Read a low MIC as a more susceptible organism.

On to `Clc1nc2ncnn2c(Cl)c1-c1cccs1` [Example 26], for which the “Fungicidal Activity EG (disease control rating)” value in assay [1] was 1 (about 50-80% disease control). Also, in assay [2], the “Fungicidal Activity PHI (disease control rating)” value is recorded as 2 (greater than 80% disease control). Moreover, the results for the MIC in assay [3], in assay [4] and in assay [5] were 6.25 µg/mL (≈ 23.1 µM), 0.78 µg/mL (≈ 2.88 µM) and 0.39 µg/mL (≈ 1.44 µM), respectively.
With `Cc1ccccc1-c1c(Cl)nc2ncnn2c1Cl` [Example 29], the “PVA (disease control rating)” value in assay [6] is 1 (50-80% disease control). Also, the MIC in assay [3] came out at 12.5 µg/mL (≈ 44.8 µM); in assay [4] it was 6.25 µg/mL (≈ 22.4 µM); in assay [5], 1.56 µg/mL (≈ 5.59 µM).
